Laboratory results from ChEMBL document CHEMBL3526144 (Drug Metab Dispos, 2011).

Tests used:
[1] = Inhibition of CYP3A4.1 (unknown origin)-mediated testosterone 6beta-hydroxylation incubated for 10 mins prior to NADPH addition measured after 20 mins by HPLC-UV analysis
[2] = Inhibition of CYP3A4.2 (unknown origin)-mediated testosterone 6beta-hydroxylation incubated for 10 mins prior to NADPH addition measured after 20 mins by HPLC-UV analysis
[3] = Inhibition of CYP3A4.7 (unknown origin)-mediated testosterone 6beta-hydroxylation incubated for 10 mins prior to NADPH addition measured after 20 mins by HPLC-UV analysis
[4] = Inhibition of CYP3A4.16 (unknown origin)-mediated testosterone 6beta-hydroxylation incubated for 10 mins prior to NADPH addition measured after 20 mins by HPLC-UV analysis
[5] = Inhibition of CYP3A4.18 (unknown origin)-mediated testosterone 6beta-hydroxylation incubated for 10 mins prior to NADPH addition measured after 20 mins by HPLC-UV analysis
CYP3A4.7 and CYP3A4.1 = assay: Ratio of Ki for CYP3A4.7 (unknown origin) to Ki for CYP3A4.1 (unknown origin); format: ADME; conditions: human
CYP3A4.16 and CYP3A4.1 = assay: Ratio of Ki for CYP3A4.16 (unknown origin) to Ki for CYP3A4.1 (unknown origin); conditions: human
CYP3A4.2 and CYP3A4.1 = assay: Ratio of Ki for CYP3A4.2 (unknown origin) to Ki for CYP3A4.1 (unknown origin); format: ADME; conditions: human

- Ki [1]: 76 nM
- Ki [2]: 45 nM
- Ki [3]: 179 nM
- Ki [4]: 41 nM
- Ki [5]: 82 nM
SMILES: CCC(C)n1ncn(-c2ccc(N3CCN(c4ccc(OCC5COC(Cn6cncn6)(c6ccc(Cl)cc6Cl)O5)cc4)CC3)cc2)c1=O (stereo not drawn) [ITRACONAZOLE]
- selectivity ratio (CYP3A4.7 and CYP3A4.1): 2.4
- selectivity ratio (CYP3A4.16 and CYP3A4.1): 0.54
- selectivity ratio (CYP3A4.2 and CYP3A4.1): 0.59
